In patent publication US12209102B2, “Heterocyclic compounds and uses thereof” (Kumquat Biosciences Inc., priority 2022, dated 2025):

How the values were obtained:
[1] = biological target: T1, K-Ras G12D (Homo sapiens, UniProt P01116, G12D); test: HTRF resonance energy transfer assay, K-Ras G12D / SOS1 interaction; format: biochemical; conditions: HTRF assay of Example 5; read-out: IC50 against K-Ras G12D
T1 construct: made in house; host or cells: E. coli BL21 (DE3)
How it was run: (§1)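 Buffer about 5 mM HEPES pH 7.4 with ~150 mM NaCl, ~1 mM DTT, 0.05% BSA, 0.0025% (v/v) Igepal. Protein constructs used at molarity matching the IC50 range studied (e.g. ~500 nM). FRET between tagged K-Ras and hSOS1 measured after short incubation.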

[2] = biological target: T2, K-Ras G12S (Homo sapiens, UniProt P01116, G12S); test: HTRF resonance energy transfer assay, K-Ras G12S / SOS1 interaction; format: biochemical; conditions: HTRF assay of Example 5; read-out: IC50 against K-Ras G12S
T2 construct: made in house; host or cells: E. coli BL21 (DE3)
How it was run: as §1

[3] = biological target: T3, K-Ras G12V (Homo sapiens, UniProt P01116, G12V); test: HTRF resonance energy transfer assay, K-Ras G12V / SOS1 interaction; format: biochemical; conditions: HTRF assay of Example 5; read-out: IC50 against K-Ras G12V
T3 construct: made in house; host or cells: E. coli BL21 (DE3)
How it was run: as §1

[4] = biological target: T4, K-Ras WT (Homo sapiens, UniProt P01116); test: HTRF resonance energy transfer assay, K-Ras WT / SOS1 interaction; format: biochemical; conditions: HTRF assay of Example 5; read-out: IC50 against K-Ras WT
T4 construct: made in house; host or cells: E. coli BL21 (DE3)
How it was run: as §1

[5] = system: GP2D cells; test: Ras cellular assay, growth of cells with K-Ras G12D mutation (CellTiter-Glo); format: cell-based; conditions: cell growth, Example 9, G12D mutation, read-out: IC50 against GP2D cells
[6] = system: SW620 cells; test: Ras cellular assay, growth of cells with K-Ras G12V mutation (CellTiter-Glo); format: cell-based; conditions: Homo sapiens, SW-620; cell growth, Example 9, G12V mutation; read-out: IC50 against SW620 cells
How it was run: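 IC50 values came from a four-parameter fit of CellTiter-Glo viability, read roughly 6 days after dosing with e.g. a 10-point threefold dilution series. G12V-mutant SW620 cells (e.g. 800 per well) had been plated the previous day in RPMI-1640/10% heat-inactivated FBS, on tissue culture-treated or ultra-low attachment plates.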

T4 sequence (P01116 1-188 isoform P01116-2): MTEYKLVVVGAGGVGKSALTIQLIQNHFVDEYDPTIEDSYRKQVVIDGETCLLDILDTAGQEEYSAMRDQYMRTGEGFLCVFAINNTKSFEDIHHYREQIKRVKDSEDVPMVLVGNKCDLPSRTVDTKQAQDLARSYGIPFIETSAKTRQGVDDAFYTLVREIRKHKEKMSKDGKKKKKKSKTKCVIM
T3 sequence (P01116 1-188 isoform P01116-2 G12V): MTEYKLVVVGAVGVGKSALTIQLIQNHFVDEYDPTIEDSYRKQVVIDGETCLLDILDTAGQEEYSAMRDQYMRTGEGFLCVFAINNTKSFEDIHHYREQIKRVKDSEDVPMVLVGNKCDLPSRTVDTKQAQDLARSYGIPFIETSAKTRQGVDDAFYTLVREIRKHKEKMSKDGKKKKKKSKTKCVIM
T1 sequence (P01116 1-188 isoform P01116-2 G12D): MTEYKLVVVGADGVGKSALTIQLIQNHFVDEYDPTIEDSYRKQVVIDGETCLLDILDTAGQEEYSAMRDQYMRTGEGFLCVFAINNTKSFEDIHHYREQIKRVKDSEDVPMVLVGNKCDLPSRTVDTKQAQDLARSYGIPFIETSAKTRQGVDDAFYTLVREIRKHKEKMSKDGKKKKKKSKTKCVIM
T2 sequence (P01116 1-188 isoform P01116-2 G12S): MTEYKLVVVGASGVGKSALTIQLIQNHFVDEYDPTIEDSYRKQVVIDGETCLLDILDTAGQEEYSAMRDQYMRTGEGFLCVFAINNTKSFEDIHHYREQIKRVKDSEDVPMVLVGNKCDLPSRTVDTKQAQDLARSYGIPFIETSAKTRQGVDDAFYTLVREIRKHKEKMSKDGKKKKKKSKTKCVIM

Structure (SMILES)	IC50 [1]	IC50 [2]	IC50 [3]	IC50 [4]	IC50 [6]	IC50 [5]
C=C[C@H]1COc2c(Cl)c(-c3ccc(F)c4sc(N)c(C#N)c34)c(F)c3nc(OC[C@@]45CCCN4C[C@H](F)C5)nc(c23)N1C1CCOC1 (single isomer, unassigned) [Compound 980]	< 100 nM	< 100 nM	< 100 nM	< 100 nM	< 5000 nM	< 500 nM
CN1c2nc(OC[C@@]34CCCN3C[C@H](F)C4)nc3c(F)c(-c4ccc(F)c5sc(N)c(C#N)c45)c(Cl)c(c23)OC[C@@H]1CNC=O [Compound 1097, N-(((5S)-9-(2-amino-3-cyano-7-fluorobenzo[b]thiophen-4-yl)-8-chloro-10-fluoro-2-(((2R,7aS)-2-fluorotetrahydro-1H-pyrrolizin-7a(5H)-yl)methoxy)-4-methyl-5,6-dihydro-4H-[1,4]oxazepino[5,6,7-de]quinazolin-5-yl)methyl)formamide]	< 100 nM	< 100 nM	< 100 nM	< 100 nM	< 5000 nM	< 500 nM
CC(C)(O)[C@H]1COc2c(Cl)c(-c3ccc(F)c4sc(N)c(C#N)c34)c(F)c3nc(OC[C@@]45CCCN4C[C@H](F)C5)nc(c23)N1C1CCOC1 (stereo partly drawn) [Compound 1041, 2-amino-4-((5R)-8-chloro-10-fluoro-2-(((2R,7aS)-2-fluorotetrahydro-1H-pyrrolizin-7a(5H)-yl)methoxy)-5-(2-hydroxypropan-2-yl)-4-(tetrahydrofuran-3-yl)-5,6-dihydro-4H-[1,4]oxazepino[5,6,7-de]quinazolin-9-yl)-7-fluorobenzo[b]thiophene-3-carbonitrile]	< 100 nM	< 100 nM	< 100 nM	< 100 nM	< 5000 nM	< 500 nM
N#Cc1c(N)sc2c(F)ccc(-c3c(Cl)c4c5c(nc(OC[C@@]67CCCN6C[C@H](F)C7)nc5c3F)N(C3CCOC3)[C@@H](C3(F)CC3)CO4)c12 (single isomer, unassigned) [Compound 772]	< 100 nM	< 100 nM	< 100 nM	< 100 nM	< 5000 nM	< 500 nM
N#Cc1c(N)sc2c(F)ccc(-c3c(Cl)c4c5c(nc(OC[C@@]67CCCN6C[C@H](F)C7)nc5c3F)N(CC(F)F)[C@H](C3(C#N)CC3)CO4)c12 [Compound 722, 2-amino-4-((R)-8-chloro-5-(1-cyanocyclopropyl)-4-(2,2-difluoroethyl)-10-fluoro-2-(((2R,7aS)-2-fluorotetrahydro-1H-pyrrolizin-7a(5H)-yl)methoxy)-5,6-dihydro-4H-[1,4]oxazepino[5,6,7-de]quinazolin-9-yl)-7-fluorobenzo[b]thiophene-3-carbonitrile]	< 100 nM	< 100 nM	< 100 nM	< 100 nM	< 5000 nM	< 500 nM

Second part, led by results:

IC50 [1]	IC50 [2]	IC50 [3]	IC50 [4]	IC50 [6]	Structure (SMILES)	IC50 [5]
< 100 nM	< 100 nM	< 100 nM	< 100 nM	< 5000 nM	N#Cc1c(N)sc2c(F)ccc(-c3c(Cl)c4c5c(nc(OC[C@@]67CCCN6C[C@H](F)C7)nc5c3F)N(CC3CC3C#N)[C@@H](C3(O)CC3)CO4)c12 (stereo partly drawn) [Compound 876, 2-amino-4-((5R)-8-chloro-4-((2-cyanocyclopropyl)methyl)-10-fluoro-2-(((2R,7aS)-2-fluorotetrahydro-1H-pyrrolizin-7a(5H)-yl)methoxy)-5-(1-hydroxycyclopropyl)-5,6-dihydro-4H-[1,4]oxazepino[5,6,7-de]quinazolin-9-yl)-7-fluorobenzo[b]thiophene-3-carbonitrile]	< 500 nM
< 100 nM	< 100 nM	< 100 nM	< 100 nM	< 5000 nM	C[C@H]1C(C(F)F)Oc2c(Cl)c(-c3ccc(F)c4sc(N)c(C#N)c34)c(F)c3nc(OC[C@@]45CCCN4C[C@H](F)C5)nc(c23)N1CC(F)F (stereo partly drawn) [Compound 723, 2-amino-4-((5S)-8-chloro-4-(2,2-difluoroethyl)-6-(difluoromethyl)-10-fluoro-2-(((2R,7aS)-2-fluorotetrahydro-1H-pyrrolizin-7a(5H)-yl)methoxy)-5-methyl-5,6-dihydro-4H-[1,4]oxazepino[5,6,7-de]quinazolin-9-yl)-7-fluorobenzo[b]thiophene-3-carbonitrile]	< 500 nM
< 100 nM	< 100 nM	< 100 nM	< 100 nM	< 5000 nM	N#Cc1c(N)sc2c(F)ccc(-c3c(Cl)c4c5c(nc(OC[C@@]67CCCN6C[C@H](F)C7)nc5c3F)N[C@@H](C(F)F)CO4)c12 [Compound 618, 2-amino-4-((R)-8-chloro-5-(difluoromethyl)-10-fluoro-2-(((2R,7aS)-2-fluorotetrahydro-1H-pyrrolizin-7a(5H)-yl)methoxy)-5,6-dihydro-4H-[1,4]oxazepino[5,6,7-de]quinazolin-9-yl)-7-fluorobenzo[b]thiophene-3-carbonitrile]	< 500 nM
< 100 nM	< 100 nM	< 100 nM	< 100 nM	< 5000 nM	CN(C)CCCN1c2nc(OC[C@@]34CCCN3C[C@H](F)C4)nc3c(F)c(-c4ccc(F)c5sc(N)c(C#N)c45)c(Cl)c(c23)OCC1CC#N (stereo partly drawn) [Compound 896, 2-amino-4-(8-chloro-5-(cyanomethyl)-4-(3-(dimethylamino)propyl)-10-fluoro-2-(((2R,7aS)-2-fluorotetrahydro-1H-pyrrolizin-7a(5H)-yl)methoxy)-5,6-dihydro-4H-[1,4]oxazepino[5,6,7-de]quinazolin-9-yl)-7-fluorobenzo[b]thiophene-3-carbonitrile]	< 500 nM
< 100 nM	< 100 nM	< 100 nM	< 100 nM	< 5000 nM	N#Cc1c(N)sc2c(F)ccc(-c3c(Cl)c4c5c(nc(OC[C@@]67CCCN6C[C@H](F)C7)nc5c3F)N(CC(F)F)[C@@H](C(O)C(F)(F)F)CO4)c12 (stereo partly drawn) [Compound 919, 2-amino-4-((5R)-8-chloro-4-(2,2-difluoroethyl)-10-fluoro-2-(((2R,7aS)-2-fluorotetrahydro-1H-pyrrolizin-7a(5H)-yl)methoxy)-5-(2,2,2-trifluoro-1-hydroxyethyl)-5,6-dihydro-4H-[1,4]oxazepino[5,6,7-de]quinazolin-9-yl)-7-fluorobenzo[b]thiophene-3-carbonitrile]	< 500 nM
< 100 nM	< 100 nM	< 100 nM	< 100 nM	< 5000 nM	N#Cc1c(N)sc2c(F)ccc(-c3c(Cl)c4c5c(nc(OC[C@@]67CCCN6C[C@H](F)C7)nc5c3F)N(CC(F)F)[C@@H](C3CC3)CO4)c12 [Compound 1022, 2-amino-4-((S)-8-chloro-5-cyclopropyl-4-(2,2-difluoroethyl)-10-fluoro-2-(((2R,7aS)-2-fluorotetrahydro-1H-pyrrolizin-7a(5H)-yl)methoxy)-5,6-dihydro-4H-[1,4]oxazepino[5,6,7-de]quinazolin-9-yl)-7-fluorobenzo[b]thiophene-3-carbonitrile]	< 500 nM
< 100 nM	< 100 nM	< 100 nM	< 100 nM	< 5000 nM	C[C@H](O)[C@H]1[C@@H](C)Oc2c(Cl)c(-c3ccc(F)c4sc(N)c(C#N)c34)c(F)c3nc(OC[C@@]45CCCN4C[C@H](F)C5)nc(c23)N1CC(F)F [Compound 911, 2-amino-4-((5S,6R)-8-chloro-4-(2,2-difluoroethyl)-10-fluoro-2-(((2R,7aS)-2-fluorotetrahydro-1H-pyrrolizin-7a(5H)-yl)methoxy)-5-((S)-1-hydroxyethyl)-6-methyl-5,6-dihydro-4H-[1,4]oxazepino[5,6,7-de]quinazolin-9-yl)-7-fluorobenzo[b]thiophene-3-carbonitrile]	< 500 nM
< 100 nM	< 100 nM	< 100 nM	< 100 nM	< 5000 nM	CC(O)C1COc2c(Cl)c(-c3ccc(F)c4sc(N)c(C#N)c34)c(F)c3nc(OC[C@@]45CCCN4C[C@H](F)C5)nc(c23)N1CCN(C)C (stereo partly drawn) [Compound 745, 2-amino-4-(8-chloro-4-(2-(dimethylamino)ethyl)-10-fluoro-2-(((2R,7aS)-2-fluorotetrahydro-1H-pyrrolizin-7a(5H)-yl)methoxy)-5-(1-hydroxyethyl)-5,6-dihydro-4H-[1,4]oxazepino[5,6,7-de]quinazolin-9-yl)-7-fluorobenzo[b]thiophene-3-carbonitrile]	< 500 nM
